From patent US6337417B1, “N-phenyltetrahydrophthalamic acid derivatives, methods of producing same, and herbicides containing same as effective components” (Central Glass Co., Ltd., priority 1994, dated 2002)

Key:
Type in all cases: in vivo
Design in all cases: key: 5: completely killed; 4: seriously injured; 3: considerably injured; 2: somewhat injured; 1: slightly injured; 0: not injured (normally grown)
[1] = test system: aobiyu (slender amaranth, Amaranthus viridis); experiment: Experiment 5 foliage treatment: aobiyu; details: foliage spray of wettable powder suspension, evaluated 4 weeks after treatment
Experimental: (§1) Upon seedling stage (two- or three-leaved stage) of rice, cockspur (Panicum crus-galli), garden radish, aobiyu (slender amaranth, Amaranthus viridis) and mehishiba (henry crabgrass, Digitaria cliaris) which were grown on a cultivated soil put in pots of 1/15500 ares, a selected compound obtained in a manner analogous to Example 11, in suspended wettable powder, was sprayed to each plant. After that, the pots were kept in a glass chamber to allow each plant to grow, and after the lapse of 4 weeks from the treatment with the selected compounds the herbicidal effects were evaluated. The evaluation of the herbicidal effects was similarly conducted as that of Experiment 1.

[2] = test system: cockspur (Panicum crus-galli); experiment: Experiment 5 foliage treatment: cockspur; details: foliage spray of wettable powder suspension, evaluated 4 weeks after treatment
Experimental: as §1

[3] = test system: aobiyu (slender amaranth, Amaranthus viridis); experiment: Experiment 8 foliage treatment: aobiyu; details: foliage spray of wettable powder suspension, evaluated 4 weeks after treatment
Experimental: as §1, with “to Example 14, in suspended” for “to Example 11, in suspended”, “conducted as to that of” for “conducted as that of”

[4] = test system: cockspur (Panicum crus-galli); experiment: Experiment 8 foliage treatment: cockspur; details: foliage spray of wettable powder suspension, evaluated 4 weeks after treatment
Experimental: as §1, with “to Example 14, in suspended” for “to Example 11, in suspended”, “conducted as to that of” for “conducted as that of”

[5] = test system: rice; experiment: Experiment 5 foliage treatment: rice; details: foliage spray of wettable powder suspension, evaluated 4 weeks after treatment
Experimental: as §1

[6] = test system: mehishiba (henry crabgrass, Digitaria cliaris); experiment: Experiment 5 foliage treatment: mehishiba; details: foliage spray of wettable powder suspension, evaluated 4 weeks after treatment
Experimental: as §1

[7] = test system: garden radish; experiment: Experiment 2 foliage treatment: garden radish; details: 4 weeks after treatment
Experimental: as §1, with “to Example 8, in suspended” for “to Example 11, in suspended”, “conducted as to that of” for “conducted as that of”

[8] = test system: mehishiba (henry crabgrass, Digitaria cliaris); experiment: Experiment 8 foliage treatment: mehishiba; details: foliage spray of wettable powder suspension, evaluated 4 weeks after treatment
Experimental: as §1, with “to Example 14, in suspended” for “to Example 11, in suspended”, “conducted as to that of” for “conducted as that of”

[9] = test system: mehishiba (henry crabgrass, Digitaria cliaris); experiment: Experiment 2 foliage treatment: mehishiba; details: 4 weeks after treatment
Experimental: as §1, with “to Example 8, in suspended” for “to Example 11, in suspended”, “conducted as to that of” for “conducted as that of”

[10] = test system: garden radish; experiment: Experiment 5 foliage treatment: garden radish; details: foliage spray of wettable powder suspension, evaluated 4 weeks after treatment
Experimental: as §1

[11] = test system: aobiyu (slender amaranth, Amaranthus viridis); experiment: Experiment 2 foliage treatment: aobiyu; details: 4 weeks after treatment
Experimental: as §1, with “to Example 8, in suspended” for “to Example 11, in suspended”, “conducted as to that of” for “conducted as that of”

[12] = test system: rice; experiment: Experiment 2 foliage treatment: rice; details: 4 weeks after treatment
Experimental: as §1, with “to Example 8, in suspended” for “to Example 11, in suspended”, “conducted as to that of” for “conducted as that of”

[13] = test system: cockspur (Panicum crus-galli); experiment: Experiment 2 foliage treatment: cockspur; details: 4 weeks after treatment
Experimental: as §1, with “to Example 8, in suspended” for “to Example 11, in suspended”, “conducted as to that of” for “conducted as that of”

[14] = test system: rice; experiment: Experiment 8 foliage treatment: rice; details: foliage spray of wettable powder suspension, evaluated 4 weeks after treatment
Experimental: as §1, with “to Example 14, in suspended” for “to Example 11, in suspended”, “conducted as to that of” for “conducted as that of”

[15] = test system: garden radish; experiment: Experiment 8 foliage treatment: garden radish; details: foliage spray of wettable powder suspension, evaluated 4 weeks after treatment
Experimental: as §1, with “to Example 14, in suspended” for “to Example 11, in suspended”, “conducted as to that of” for “conducted as that of”

[16] = test system: tamagayatsuri (small-flowered umbrellaplant, Cyperus difformis); experiment: Experiment 7 flooded soil treatment: tamagayatsuri; details: evaluated 4 weeks after treatment
Source text: (§2) Paddy soil (clay loam) was put into a pot so as to have a surface area of 1/15500 ares. Uniformly mixed seeds of several kinds of weeds, viz., nobie (barnyardgrass, Echinochloa spp.), broad-leaved weeds, hotarui (bulrush, Scirpus juncoides) and tamagayatsuri (small-flowered umbrellaplant, Cyperus difformis), were sown in the surface layer of the soil in each pot, and then paddy rice seedlings at the two- or three-leaved stage were transplanted into each pot to a depth of 2 cm, and water was fed into each pot so as to provide a 3 cm deep water layer on the soil surface. After 3 days, in other words at the initial stage of germination of nobie (barnyardgrass, Echinochloa spp.), a predetermined amount of a selected compound obtained in a manner analogous to Example 14 in the form of diluted aqueous solution was dropped into the water layer in each pot. After that, the pots were kept in a glass chamber to allow the paddy rice and the weeds to grow, and after the lapse of 4 weeks from the treatment with the selected compounds, the herbicidal effects and the degree of injury to the paddy rice were evaluated. The evaluation of the herbicidal effects was similarly conducted as that of Experiment 1.

[17] = test system: hotarui (bulrush, Scirpus juncoides); experiment: Experiment 7 flooded soil treatment: hotarui; details: evaluated 4 weeks after treatment
Source text: as §2

[18] = test system: nobie (barnyardgrass, Echinochloa spp.); experiment: Experiment 7 flooded soil treatment: nobie; details: evaluated 4 weeks after treatment
Source text: as §2

[19] = test system: paddy rice; experiment: Experiment 7 flooded soil treatment: injury to paddy rice; details: evaluated 4 weeks after treatment
Source text: as §2

[20] = test system: broad-leaved weeds; experiment: Experiment 7 flooded soil treatment: broad-leaved weeds; details: evaluated 4 weeks after treatment
Source text: as §2

SMILES	Herbicidal Effect aobiyu ([3]; 40 g/10a)	Herbicidal Effect aobiyu ([3]; 80 g/10a)	Herbicidal Effect cockspur ([4]; 40 g/10a)	Herbicidal Effect cockspur ([4]; 80 g/10a)	Herbicidal Effect mehishiba ([8]; 40 g/10a)	Herbicidal Effect mehishiba ([8]; 80 g/10a)	Herbicidal Effect rice ([14]; 40 g/10a)	Herbicidal Effect rice ([14]; 80 g/10a)	Herbicidal Effect garden radish ([15]; 40 g/10a)	Herbicidal Effect garden radish ([15]; 80 g/10a)	Herbicidal Effect tamagayatsuri ([16]; 6.25 g/10a)	Herbicidal Effect tamagayatsuri ([16]; 12.5 g/10a)	Herbicidal Effect hotarui ([17]; 6.25 g/10a)	Herbicidal Effect hotarui ([17]; 12.5 g/10a)	Herbicidal Effect nobie ([18]; 6.25 g/10a)	Herbicidal Effect nobie ([18]; 12.5 g/10a)	Injury of Paddy ([19]; 6.25 g/10a)	Injury of Paddy ([19]; 12.5 g/10a)	Herbicidal Effect broad-leaved weed ([20]; 6.25 g/10a)	Herbicidal Effect broad-leaved weed ([20]; 12.5 g/10a)	other results
CCC(=O)Nc1ccc(Cl)c(Cl)c1 [Comparative agentB, Propanil, reference compound]	5	5	1	1	0	1	0	0	1	3											Herbicidal Effect aobiyu ([1]; 40 g/10a): 5; Herbicidal Effect aobiyu ([1]; 80 g/10a): 5; Herbicidal Effect cockspur ([2]; 40 g/10a): 0; Herbicidal Effect cockspur ([2]; 80 g/10a): 0; Herbicidal Effect rice ([5]; 40 g/10a): 0; Herbicidal Effect rice ([5]; 80 g/10a): 0; Herbicidal Effect mehishiba ([6]; 40 g/10a): 1; Herbicidal Effect mehishiba ([6]; 80 g/10a): 1; Herbicidal Effect garden radish ([7]; 40 g/10a): 3; Herbicidal Effect garden radish ([7]; 80 g/10a): 4; Herbicidal Effect mehishiba ([9]; 40 g/10a): 1; Herbicidal Effect mehishiba ([9]; 80 g/10a): 1; Herbicidal Effect garden radish ([10]; 40 g/10a): 3; Herbicidal Effect garden radish ([10]; 80 g/10a): 4; Herbicidal Effect aobiyu ([11]; 40 g/10a): 5; Herbicidal Effect aobiyu ([11]; 80 g/10a): 5; Herbicidal Effect rice ([12]; 40 g/10a): 0; Herbicidal Effect rice ([12]; 80 g/10a): 0; Herbicidal Effect cockspur ([13]; 40 g/10a): 0; Herbicidal Effect cockspur ([13]; 80 g/10a): 0
CCCCOC(=O)CSc1cc(N(C(C)=O)C(=O)C2=C(C(=O)OCCCC)CCCC2)c(F)cc1Cl [compound 40]																					Herbicidal Effect garden radish ([7]; 40 g/10a): 5; Herbicidal Effect garden radish ([7]; 80 g/10a): 5; Herbicidal Effect mehishiba ([9]; 40 g/10a): 1; Herbicidal Effect mehishiba ([9]; 80 g/10a): 1; Herbicidal Effect aobiyu ([11]; 40 g/10a): 5; Herbicidal Effect aobiyu ([11]; 80 g/10a): 5; Herbicidal Effect rice ([12]; 40 g/10a): 1; Herbicidal Effect rice ([12]; 80 g/10a): 1; Herbicidal Effect cockspur ([13]; 40 g/10a): 1; Herbicidal Effect cockspur ([13]; 80 g/10a): 1
C#CC(C)Oc1cc(N(C(=O)C2=C(C(=O)OCCC)CCCC2)C(=O)c2cccs2)c(F)cc1Cl (stereo not drawn) [compound 92]	5	5	1	1	1	1	1	1	4	4	4	5	4	4	5	5	0	0	5	5	
C#CC(C)Oc1cc(N(C(=O)C2=C(C(=O)OCCCC)CCCC2)C(=O)c2cccs2)c(F)cc1Cl (stereo not drawn) [compound 93]	5	5	1	1	1	1	1	1	4	5	4	4	4	4	5	5	0.5	0.5	5	5	
C#CC(C)Oc1cc(N(C(=O)C2=C(C(=O)OCCOC)CCCC2)C(=O)c2cccs2)c(F)cc1Cl (stereo not drawn) [compound 94]	5	5	1	1	1	1	1	1	5	5	5	5	5	5	5	5	0.5	0.5	5	5	
C#CC(C)Oc1cc(N(C(=O)C2=C(C(=O)OC)CCCC2)C(=O)c2sccc2C)c(F)cc1Cl (stereo not drawn) [compound 95]	5	5	1	1	1	1	1	1	4	4	5	5	4	4	5	5	0	0	5	5	
